In paper PMC8945229, “Development and Biological Characterization of a Novel Selective TrkA Agonist with Neuroprotective Properties against Amyloid Toxicity” (Biomedicines, 2022):

Legend:
[1] = test system: Primary Dorsal Root Ganglia (DRG) neurons; test: Neurite outgrowth assay in primary DRG neurons without NGF; assay type: cell-based, mouse; conditions: 500 nM every 48 h, 5 DIV, NGF-neutralizing antibody
Protocol: Primary Dorsal Root Ganglia (DRG) neurons were isolated from P0-P1 mouse pups (C57BL/6J, The Jackson Laboratory, Bar Harbor, ME, USA) as described previously and cultured with Neurobasal medium (21103049 Gibco, Grand Island, NY, USA) containing 2% B27 (17504044, Gibco, Grand Island, NY, USA), 100 ng/mL NGF (N-100, Alomone Labs, Jerusalem, Israel), 1X GlutaMax (35050061, Gibco, Grand Island, NY, USA), 10 mM HEPES (15630080, Gibco, Grand Island, NY, USA), 1% Penicillin/Streptomycin (15070063, Gibco, Grand Island, NY, USA) and 10 μM 5-Fluoro-2′-deoxyuridine (343333, Calbiochem, Darmstadt, Germany). For TUNEL assay, cells were cultured for 14 days in vitro and then the medium was deprived of NGF before adding ENT-A013 (500 nM, every 24 h) along with NGF-neutralizing antibody (N8773, 1:500, Sigma-Aldrich, St. Louis, MO, USA). Cells were then incubated for 48 h before being fixed with 4% PFA and labelled with TUNEL (11684795910, F. Hoffmann–La Roche Ltd., Basel, Switzerland) following the manufacturer’s protocol. Subsequently, cells were immunostained against Tuj1 (1:2000, 801201, Biolegend, Inc., San Diego, CA, USA) and anti-mouse Cy3 (1:1000, Invitrogen, A10521, Waltham, MA, USA) and imaged with a Leica SP8 confocal microscope. […] Cells were then imaged by confocal microscopy and neurite length was measured using Fiji software (NIH, Bethesda, Maryland, USA).

TrkB = target: T1, TrkB (Homo sapiens, UniProt Q16620); test: TrkB phosphorylation in NIH-3T3 cells stably transfected with TrkB; assay type: cell-based; conditions: 500 nM, 30′
T1 construct: expressed in transfected cells
T1 sequence (Q16620 32-822): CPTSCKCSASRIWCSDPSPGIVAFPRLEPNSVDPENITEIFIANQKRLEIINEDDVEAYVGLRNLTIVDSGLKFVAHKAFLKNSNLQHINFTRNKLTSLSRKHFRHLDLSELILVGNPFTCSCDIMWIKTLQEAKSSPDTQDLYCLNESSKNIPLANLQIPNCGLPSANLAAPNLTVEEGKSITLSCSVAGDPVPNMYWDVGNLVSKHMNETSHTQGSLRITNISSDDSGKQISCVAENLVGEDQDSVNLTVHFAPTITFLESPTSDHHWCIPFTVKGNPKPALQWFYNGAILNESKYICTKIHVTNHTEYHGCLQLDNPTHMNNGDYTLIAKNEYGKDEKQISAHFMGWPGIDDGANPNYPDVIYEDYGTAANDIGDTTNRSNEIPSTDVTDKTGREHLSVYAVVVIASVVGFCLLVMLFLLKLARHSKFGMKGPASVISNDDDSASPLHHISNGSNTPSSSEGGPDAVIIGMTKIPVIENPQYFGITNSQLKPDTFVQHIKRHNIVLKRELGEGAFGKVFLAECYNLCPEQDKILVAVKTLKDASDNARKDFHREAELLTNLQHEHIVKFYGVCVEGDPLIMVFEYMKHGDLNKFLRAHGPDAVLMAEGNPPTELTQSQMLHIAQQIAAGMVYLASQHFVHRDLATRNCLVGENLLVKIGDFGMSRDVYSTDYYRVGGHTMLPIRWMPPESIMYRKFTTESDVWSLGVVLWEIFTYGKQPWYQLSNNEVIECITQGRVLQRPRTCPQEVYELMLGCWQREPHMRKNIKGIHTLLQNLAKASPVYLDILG
Protocol: PC12 and HEK293T cells were obtained from LGC Promochem GmbH (Teddington, UK) and cultured under the conditions specified by the manufacturer. NIH3T3 cells were stably transfected with human TrkB plasmid. PC12 cells were grown in DMEM medium (11965084, Gibco, Grand Island, NY, USA) containing 10% Horse Serum (16050122, Gibco, Grand Island, NY, USA), 5% Fetal Bovine Serum (10270106, Gibco, Grand Island, NY, USA), 100 units/mL Penicillin and 0.1 mg/mL Streptomycin (15140122, Gibco, Grand Island, NY, USA) at 5% CO2 and 37 °C. Cells were used between passages 5–20. HEK293T and NIH3T3 cells were grown in the same medium as PC12 cells supplemented with 10% Fetal Bovine Serum and lacking Horse Serum. For transient transfection of HEK293T cells, lipofectamine was used and cells were transfected with human p75^NTR and Traf6 plasmids. To determine the intracellular activity of endogenous secretases, we tagged (tGFP) a truncated mutant (Tm) of APP containing the original amino acids sequence from M516 to N773. This Tm conserves the secretases cleavage sites, clathrin binding site, tau protein binding site, collagen binding site and some glycosylation sites critical for protein localization and intracellular trafficking. The cDNA of the TmAPP gene was amplified by PCR and subcloned into pturbo-GFP vector. […]

CC12CCC(O)CC1=CCC1C2CCC2(C)C1CCC21CC1C=CBr [ENT-A013, (2′R,3S,17S)-2′-(2-Bromovinyl)-5-Androstene-17,1′-Cyclopropan-3-ol]
axonal / neurite length (in words) [1]: this difference was not significant | TrkB phosphorylation (in words) (TrkB): did not induce phosphorylation
